Assay results from US20230201221A1, “USE OF TERPENOIDS IN THE TREATMENT OR PREVENTION OF FIBROTIC DISEASES” (ARJIL BIOTECH HOLDING COMPANY LIMITED, priority 2020, published 2023).

What was measured:
Assay type in all cases: in vivo
[1] = system: TNF-α, IL-1β, IL-6 and TGF-β; assay: Bleomycin-induced pulmonary fibrosis in mice: pro-inflammatory cytokines by ELISA; conditions: extract 1.0 g/kg; BH, DH 50 mg/kg; after BLM challenge; p<0.001
Protocol: Mice were divided into fifth groups with 5 animals per group according to body weight: control group, BLM group, BLM+DEX group (7.5 mg/kg), BLM+ACH dosage group (50 mg/kg), and BLM+ACM dosage group (25 mg/kg), BLM+ACH dosage group (50 mg/kg), and BLM+ACM dosage group (25 mg/kg) BLM+AH dosage group (50 mg/kg), and BLM+AM dosage group (25 mg/kg) BLM+BH dosage group (50 mg/kg), and BLM+BM dosage group (25 mg/kg) BLM+CH dosage group (50 mg/kg), and BLM+CM dosage group (25 mg/kg) BLM+DH dosage group (50 mg/kg), and BLM+DM dosage group (25 mg/kg) BLM+EH dosage group (50 mg/kg), and BLM+EM dosage group (25 mg/kg) BLM. Pulmonary fibrosis (PF) was established in mice via a single intratracheal administration of BLM at 7.5 mg/kg mg/kg body weight. Different doses of samples were intragastrically administered daily for 21 days after BLM injury, and DEX was used as the positive control. Control and model groups received an equal volume of vehicle (0.9% NaCl) using the same schedule and route of administration. […]
(§1) The serum concentration of the pro-inflammatory cytokines (i.e. tumor necrosis factor-α (TNF-α), interleukin-6 (IL-6), and IL-1β) in serum were assessed with relevant enzyme-linked immunosorbent assay (ELISA) kits (Biosource International Inc., Sunnyvale, Calif., USA), based on the manufacturer's instructions.

C57BL/6 mice = assay: Cisplatin-induced renal injury in mice: serum CRE and BUN; conditions: extracts at 1000 mg/kg; compared to cisplatin-stimulated group, p<0.001
Protocol: Determination of biochemical parameters Serum creatinine and serum urea are assessed using colorimetric kits according to manufacturer's instructions. Kits of the former markers are purchased from (HUMAN Diagnostics Worldwide, Magdeburg, Germany) with a chemical analyzer (Roche Diagnostics, Cobas Mira Plus, Rotkreuz, Switzerland).
(§2) Seven-to-eight-week-old male C57BL/6 mice are obtained from the BioLASCO Taiwan Co., Ltd. (Taipei, Taiwan). The animals are housed in Plexiglas cages at a constant temperature of 22±1° C. and a relative humidity of 55±5% on a 12 h dark-light cycle for at least 2 weeks before the experiment. Animals are provided food and water ad libitum. All experimental procedures are performed according to the guidelines of the Institutional Animal Ethics Committee, and the protocol is approved by the Committee for the Purpose of Control and Supervision of Experiments on Animals.
Renal fibrosis is induced via multiple injections of low-dose cisplatin. Intraperitoneal injections of cisplatin (5 mg/kg/injection; P4394, Sigma-Aldrich, St Louis, Mo.) are performed at 0, 1, and 3 weeks, for a total of 3 injections. Mice are sacrificed at 6 weeks after the first dose of cisplatin (n=6). To analyze the effects of samples, mice are given daily intraperitoneal injections for 7 days, starting from 4 weeks after first dose of cisplatin, and sacrificed at […] (n=6).

[2] = system: TNF-α, IL-1β, IL-6 and TGF-β; assay: Cisplatin-induced renal injury in mice: serum pro-inflammatory cytokines by ELISA; conditions: extract at 1000 mg/kg; after cisplatin challenge
Protocol: as §1, with “TNF-α, IL-6, and IL-1β cytokines in serum The” for “The”, “are” for “were”
as §2
Renal fibrosis is induced via multiple injections of low-dose cisplatin. Intraperitoneal injections of cisplatin (5 mg/kg/injection; P4394, Sigma-Aldrich, St Louis, Mo.) are performed at 0, 1, and 3 weeks, for a total of 3 injections. Mice are sacrificed at 6 weeks after the first dose of cisplatin (n=6). […]

ICR mice = assay: Bleomycin-induced pulmonary fibrosis in mice: body weight, lung weight, lung index
Protocol: Specific pathogen-free ICR mice (males) (body weights 18-22 g) were purchased from the BioLASCO Taiwan Co., Ltd. (Taipei, Taiwan). The animals were housed in Plexiglas cages at a constant temperature of 22±1° C. and a relative humidity of 55±5% on a 12 h dark-light cycle for at least 2 weeks before the experiment. Animals were provided food and water ad libitum. All experimental procedures were performed according to the guidelines of the Institutional Animal Ethics Committee, and the protocol was approved by the Committee for the Purpose of Control and Supervision of Experiments on Animals.
Mice were divided into fifth groups with 5 animals per group according to body weight: control group, BLM group, BLM+DEX group (7.5 mg/kg), BLM+ACH dosage group (50 mg/kg), and BLM+ACM dosage group (25 mg/kg), BLM+ACH dosage group (50 mg/kg), and BLM+ACM dosage group (25 mg/kg) BLM+AH dosage group (50 mg/kg), and BLM+AM dosage group (25 mg/kg) BLM+BH dosage group (50 mg/kg), and BLM+BM dosage group (25 mg/kg) BLM+CH dosage group (50 mg/kg), and BLM+CM dosage group (25 mg/kg) BLM+DH dosage group (50 mg/kg), and BLM+DM dosage group (25 mg/kg) BLM+EH dosage group (50 mg/kg), and BLM+EM dosage group (25 mg/kg) BLM. Pulmonary fibrosis (PF) was established in mice via a single intratracheal administration of BLM at 7.5 mg/kg mg/kg body weight. Different doses of samples were intragastrically administered daily for 21 days after BLM injury, and DEX was used as the positive control. Control and model groups received an equal volume of vehicle (0.9% NaCl) using the same schedule and route of administration.
Mouse body weights were recorded daily. Mice were sacrificed on the 21th day using excess chloral hydrate hydrochloride anesthesia. Blood was obtained for ELISA analyses, and whole lungs were removed and weighed. The right lungs were fixed in 10% formalin, dehydrated, and embedded in paraffin. The left lungs were used to determine hydroxyproline. The pulmonary coefficient was calculated using the following equation: lung weight/body weight×100%
1. Group I: control; 2. Group II: mice received single intraperitoneal injection of BLM (7.5 mg/kg BW) 3. Group III: single dose (ACH, 0.5 g/kg) 4. Group IV: Single dose (ACM, 1.0 g/kg) 5. […] Group VII: purified AR101-DS2 (50 mg/kg) 8. Group VIII: purified AR101-DS2 (25 mg/kg) 7. Group VII: purified AR101-DS4 (50 mg/kg) 8. Group VIII: purified AR101-DS4 (25 mg/kg) 7. […] Group VII: purified ARH013-RA1 (50 mg/kg) 8. Group VIII: purified ARH013-RA1 (25 mg/kg)

[3] = 25 mg/kg intragastric daily for 21 days after BLM
[4] = 50 mg/kg intragastric daily for 21 days after BLM

C=C1C(=O)O[C@H]2/C=C(\C)CC3C=C(CC/C=C(\C)CC[C@H]12)C(=O)O3 (stereo partly shown) [AR100-DS1, Ovatodiolide]
TNF-α, IL-1β, IL-6 and TGF-β production [1]: improved TNF-α, IL-1β, IL-6 and TGF-β production | renal protection: normalization of serum CRE and BUN (C57BL/6 mice): significant renal protection effect | NO, TNF-α, IL-1β, and IL-6 production in serum [2]: improved NO, TNF-α, IL-1β, and IL-6 production | Final body mass (ICR mice; [3]): 37.33 ± 0.25 g | Pulmonary mass (ICR mice; [3]): 0.52 ± 0.02 g | Final body mass (ICR mice; [4]): 39.12 ± 0.30 g | Pulmonary mass (ICR mice; [4]): 0.39 ± 0.01 g
